# Data from the NIST ThermoML archive (doi:10.1021/acs.jced.6b00794).
# ± gives the expanded uncertainty stated by the source.
# Assay: refractive index (Na D-line) (dimensionless)
# Conditions: 293.15 K; 101.33 kPa; Liquid; Standard Abbe refractometry
row,SMILES,refractive index
1,O [water],1.3328 ± 0.0024
2,CCO [ethanol],1.3616 ± 0.0024
3,CC(=O)O [acetic acid],1.3717 ± 0.0024
4,C=COC(C)=O [vinyl acetate],1.3926 ± 0.0024
